Source: ChEMBL document CHEMBL4706609, “Development of triazolothiadiazine derivatives as highly potent tubulin polymerization inhibitors: Structure-activity relationship, in vitro and in vivo study” (Eur J Med Chem, 2020)

Legend:
HT-29 = test: Antiproliferative activity against human HT-29 cells assessed as reduction in cell growth after 48 hrs by MTT assay; format: functional, cell-based; details: HT-29, 48 h
A549 [1] = test: Antiproliferative activity against human A549 cells assessed as reduction in cell growth after 48 hrs by MTT assay; format: functional, cell-based; details: A549, 48 h
A2780 = test: Antiproliferative activity against paclitaxel-resistant human A2780 cells assessed as reduction in cell growth after 48 hrs by MTT assay; format: functional, cell-based; details: A2780, 48 h
[2] = Inhibition of porcine brain tubulin polymerization measured for 20 mins by spectrometric assay; format: tissue-based, Sus scrofa
HEK293 = test: Cytotoxicity against HEK293 cells assessed as reduction in cell growth after 48 hrs by MTT assay; format: cell-based; details: Homo sapiens, HEK293, 48 h
MCF7 = test: Antiproliferative activity against human MCF7 cells assessed as reduction in cell growth after 48 hrs by MTT assay; format: functional, cell-based; details: MCF7, 48 h
A549 [3] = test: Antiproliferative activity against cisplatin resistant human A549 cells assessed as reduction in cell growth after 48 hrs by MTT assay; format: functional, cell-based; details: A549, 48 h
HeLa = test: Antiproliferative activity against human HeLa cells assessed as reduction in cell growth after 48 hrs by MTT assay; format: functional, cell-based

| SMILES | IC50 (HT-29) [µM] | also measured |
| --- | --- | --- |
| COc1cc(-c2nnc3n2N=C(NCc2ccc(Cl)cc2)CS3)cc(OC)c1OC | > 20 | – |
| COc1cc(-c2nnc3n2N=C(Nc2c(Cl)cccc2Cl)CS3)cc(OC)c1OC | > 20 | – |
| COc1cc(-c2nnc3n2N=C(c2cccc4ccccc24)CS3)cc(OC)c1OC | 6.02 | – |
| COc1cc(-c2nnc3n2N=C(C2CC2)CS3)cc(OC)c1OC | > 20 | – |
| COc1cc(-c2nnc3n2N=C(NCc2ccc(Br)cc2)CS3)cc(OC)c1OC | > 20 | – |
| COc1cc(-c2nnc3n2N=C(c2ccc([N+](=O)[O-])cc2)CS3)cc(OC)c1OC | > 20 | – |
| COc1ccc(-c2nnc3n2N=C(c2cc(OC)c(OC)c(OC)c2)CS3)cc1O | 9.86 | – |
| COc1cc(-c2nnc3n2N=C(c2cccc(Br)c2)CS3)cc(OC)c1OC | 15.4 | – |
| COc1cc(-c2nnc3n2N=C(c2ccc(C(F)(F)F)cc2)CS3)cc(OC)c1OC | 0.29 | IC50 (A549 [1]): 0.286 µM; IC50 (A2780): 86.5 µM; IC50 [2]: 4.82 µM; IC50 (HEK293): > 100 µM; IC50 (MCF7): 0.241 µM; IC50 (A549 [3]): > 200 µM; IC50 (HeLa): 0.019 µM |
| COc1cc(C2=Nn3c(nnc3-c3ccc(Cl)cc3)SC2)cc(OC)c1OC | > 20 | – |
| COc1cccc(C2=Nn3c(nnc3-c3cc(OC)c(OC)c(OC)c3)SC2)c1 | 5.94 | – |
| COc1cc(-c2nnc3n2N=C(c2ccc(O)cc2)CS3)cc(OC)c1OC | 14.1 | – |
| COc1cc(-c2nnc3n2N=C(Nc2ccc(S(C)(=O)=O)cc2)CS3)cc(OC)c1OC | > 20 | – |
| COc1ccc(C2=Nn3c(nnc3-c3cc(OC)c(OC)c(OC)c3)SC2)cc1 | 0.18 | IC50 (A549 [1]): 0.077 µM; IC50 (A2780): 62.2 µM; IC50 [2]: 2.39 µM; IC50 (HEK293): > 100 µM; IC50 (MCF7): 0.205 µM; IC50 (A549 [3]): 67.2 µM; IC50 (HeLa): 0.018 µM |
| COc1cc(C2=Nn3c(nnc3-c3cc(OC)c(OC)c(OC)c3)SC2)cc(OC)c1OC | 19.9 | – |
| COc1ccc(NC2=Nn3c(nnc3-c3cc(OC)c(OC)c(OC)c3)SC2)cc1 | > 20 | – |
| COc1cc(NC2=Nn3c(nnc3-c3cc(OC)c(OC)c(OC)c3)SC2)cc(OC)c1OC | > 20 | – |
| COc1cc(C2=Nn3c(nnc3-c3ccc(F)cc3)SC2)cc(OC)c1OC | 19.7 | – |
| COc1cc(-c2nnc3n2N=C(NCCc2ccccc2)CS3)cc(OC)c1OC | > 20 | – |

| SMILES | IC50 (HT-29) [µM] | also measured |
| --- | --- | --- |
| COc1ccc(C2=Nn3c(nnc3-c3cc(OC)c(OC)c(OC)c3)SC2)cc1O | 9.81 | – |
| COc1cc(-c2nnc3n2N=C(c2ccc(-c4ccccc4)cc2)CS3)cc(OC)c1OC | 13.7 | – |
| COc1cc(-c2nnc3n2N=C(c2cccs2)CS3)cc(OC)c1OC | 4.25 | – |
| COc1cc(-c2nnc3n2N=C(Nc2ccc(Cl)cc2)CS3)cc(OC)c1OC | 2.84 | – |
| COc1cc(-c2nnc3n2N=C(NCCc2ccc(Cl)cc2)CS3)cc(OC)c1OC | > 20 | – |
| COc1cc(-c2nnc3n2N=C(Nc2ccc(Br)cc2)CS3)cc(OC)c1OC | 18.6 | – |
| COc1cc(-c2nnc3n2N=C(c2ccccc2)CS3)cc(OC)c1OC | 5.65 | – |
| COc1ccc(/C=C\c2cc(OC)c(OC)c(OC)c2)cc1O [COMBRETASTATIN A4] | – | IC50 (A549 [1]): 0.021 µM; IC50 (A2780): 72.8 µM; IC50 (HEK293): 45.7 µM; IC50 (A549 [3]): 130 µM |
| CCC1=Nn2c(nnc2-c2cc(OC)c(OC)c(OC)c2)SC1 | 15.4 | – |
| COc1ccc(CCNC2=Nn3c(nnc3-c3cc(OC)c(OC)c(OC)c3)SC2)cc1 | > 20 | – |
| COc1ccc(-c2nnc3n2N=C(c2cc(OC)c(OC)c(OC)c2)CS3)cc1OC | > 20 | – |
| COc1cc(-c2nnc3n2N=C(NCc2ccccc2)CS3)cc(OC)c1OC | > 20 | – |
| COc1cc(-c2nnc3n2N=C(c2cc4ccccc4oc2=O)CS3)cc(OC)c1OC | 10.4 | – |
| COc1cc(-c2nnc3n2N=C(c2ccco2)CS3)cc(OC)c1OC | 10.8 | – |
| COc1cc(-c2nnc3n2N=C(Nc2ccc(N4CCOCC4)cc2)CS3)cc(OC)c1OC | > 20 | – |
| COc1cc(-c2nnc3n2N=C(Nc2ccccc2)CS3)cc(OC)c1OC | 3.25 | – |
| COc1cc(-c2nnc3n2N=C(c2ccc(Br)cc2)CS3)cc(OC)c1OC | 5.18 | – |
| COc1ccc(-c2nnc3n2N=C(c2cc(OC)c(OC)c(OC)c2)CS3)cc1 | > 20 | – |

Continued, in another order:

| IC50 (HT-29) [µM] | SMILES | also measured |
| --- | --- | --- |
| 12.2 | COc1cccc(NC2=Nn3c(nnc3-c3cc(OC)c(OC)c(OC)c3)SC2)c1 | – |
| > 20 | COc1cc(-c2nnc3n2N=C(Nc2ccc(C)cc2)CS3)cc(OC)c1OC | – |
| > 20 | COc1cc(-c2nnc3n2N=C(Nc2ccccc2C)CS3)cc(OC)c1OC | – |
| > 20 | COc1cc(-c2nnc3n2N=C(Nc2cccc(F)c2)CS3)cc(OC)c1OC | – |
| 13.6 | COc1cc(-c2nnc3n2N=C(c2cccc(C)c2)CS3)cc(OC)c1OC | – |
| 8.32 | COc1cc(-c2nnc3n2N=C(c2ccc(F)cc2)CS3)cc(OC)c1OC | – |
| 0.131 | COc1cc(-c2nnc(SCC(=O)c3ccc(C)cc3F)n2N)cc(OC)c1OC | IC50 (A549 [1]): > 100 µM; IC50 (MCF7): > 100 µM; IC50 (HeLa): 0.04 µM |
| > 20 | COc1cc(-c2nnc3n2N=C(NCCc2ccc(F)cc2)CS3)cc(OC)c1OC | – |
| > 20 | COc1cc(-c2nnc3n2N=C(NCc2ccc(C)cc2)CS3)cc(OC)c1OC | – |
| 15.8 | COc1cc(-c2nnc3n2N=C(C)CS3)cc(OC)c1OC | – |
| > 20 | COc1cc(-c2nnc3n2N=C(c2ccc(F)c(F)c2)CS3)cc(OC)c1OC | – |
| 2.9 | COc1cc(-c2nnc3n2N=C(Nc2ccccc2F)CS3)cc(OC)c1OC | – |
| > 20 | COc1cc(C2=Nn3c(nnc3-c3ccc(C)cc3)SC2)cc(OC)c1OC | – |
| 16.1 | COc1cc(-c2nnc3n2N=C(c2ccccc2C)CS3)cc(OC)c1OC | – |
| > 20 | COc1cc(-c2nnc3n2N=C(NCCc2ccc(C)cc2)CS3)cc(OC)c1OC | – |
| 8.11 | COc1cc(-c2nnc3n2N=C(Nc2ccc(F)cc2)CS3)cc(OC)c1OC | – |
